Assay results taken from publication PMC6271988, “New Potentially Active Pyrazinamide Derivatives Synthesized Under Microwave Conditions” (Molecules, 2014).
Converted amounts (≈) assume the structure as drawn. Read-outs that look alike come from different tables or passages of the source.

Columns and labels:
[1] = Lipophilicity HPLC determination (logk); assay type: physicochemical; conditions: HPLC capacity factor, C18, MeOH 70%/H2O 30%, 30 °C
[2] = system: PET in spinach chloroplasts; test: Photosynthetic electron transport (PET) inhibition, DCPIP photoreduction; assay type: biochemical, Spinacia oleracea L.; conditions: for IC50: DCPIP photoreduction
Method: The inhibition of photosynthetic electron transport (PET) in spinach chloroplasts was determined spectrophotometrically (Genesys 6, Thermo Scientific, Madison, WI, USA) using an artificial electron acceptor 2,6-dichlorophenol-indophenol (DCPIP). The rate of photosynthetic electron transport was monitored as a photoreduction of DCPIP. Chloroplasts were prepared from Spinacia oleracea L.. The measurements were carried out in phosphate buffer (0.02 mol/L, pH 7.2) containing sucrose (0.4 mol/L), MgCl2 (0.005 mol/L) and NaCl (0.015 mol/L). The chlorophyll concentration was 30 mg/L and the samples were irradiated (~100 W/m^2 with 10 cm distance) with a halogen lamp (250 W). […] The studied compound were dissolved in DMSO due to their limited water solubility. […] The efficiency of studied compounds was expressed as 50% inhibition concentration relative to the untreated control. The standard for these measurements was DCMU (Diurone®).

[3] = system: spectrum of fungi tested (8 fungal strains); test: Antifungal evaluation, summary over the fungi tested; assay type: cell-based
Method: (§1) Antifungal evaluation was also accomplished with microdilution broth method. On the contrary, there was used RPMI 1640 broth with glutamine as medium and conditions were humid and dark atmosphere, pH 7.0 (adjusted with 0.165 M morpholinepropanesulfonic acid, MOPS) and 35 °C. 8 fungal strains were used (Candida albicans ATCC 44859, Candida tropicalis 156, Candida krusei E28, Candida glabrata 20/I, Trichosporon asahii 1188, Aspergillus fumigatus 231, Lichtheimia corymbifera 272, Trichophyton mentagrophytes 445) together with four antimycotic standards amphotericin B, voriconazole, nystatin and fluconazole.

[4] = system: Staphylococcus epidermidis; test: Antibacterial in vitro screening, microdilution broth method; assay type: cell-based; conditions: 80% inhibition of control
[5] = system: Aspergillus fumigatus 231; test: Antifungal evaluation, microdilution broth method; assay type: cell-based; conditions: Aspergillus fumigatus, 231, AF
Method: as §1

[6] = system: Candida albicans ATCC 44859; test: Antifungal evaluation, microdilution broth method; assay type: cell-based; conditions: Candida albicans, ATCC44859, CA
Method: as §1

Candida glabrata 20/I = test: Antifungal evaluation, microdilution broth method; assay type: cell-based; conditions: Nakaseomyces glabratus, 20/I, CG
Method: as §1

Candida krusei E28 = test: Antifungal evaluation, microdilution broth method; assay type: cell-based; conditions: Pichia kudriavzevii, E28, CK
Method: as §1

Candida tropicalis 156 = test: Antifungal evaluation, microdilution broth method; assay type: cell-based; conditions: Candida tropicalis, 156, CT
Method: as §1

[7] = system: Lichtheimia corymbifera 272; test: Antifungal evaluation, microdilution broth method; assay type: cell-based; conditions: Lichtheimia corymbifera, 272, LC
Method: as §1

[8] = system: Trichophyton mentagrophytes 445; test: Antifungal evaluation, microdilution broth method; assay type: cell-based; conditions: Trichophyton mentagrophytes, 445, TM
Method: as §1

Trichosporon asahii 1188 = test: Antifungal evaluation, microdilution broth method; assay type: cell-based; conditions: Trichosporon asahii, 1188, TA
Method: as §1

[9] = system: Mycobacterium tuberculosis H37Rv; test: Antimycobacterial in vitro screening, microdilution broth panel method, Alamar Blue; assay type: cell-based; conditions: 336 h, M. tuberculosis H37Rv, Middlebrook 7H9, 14 days of incubation

Compound: CCNc1nccnc1C(N)=O [Compound 2, 3-(Ethylamino)pyrazine-2-carboxamide]
- logk [1]: −0.2014
- PET inhibition (result in words) [2]: did not inhibit PET

Compound: CCCCCCCNc1nccnc1C(N)=O [Compound 8, 3-(Heptylamino)pyrazine-2-carboxamide]
- logk [1]: 0.9198
- IC80 ([3]; fungi tested, less active than the standards, read-out: IC80 antifungal): ≥ 250 µM

Compound: CNc1nccnc1C(N)=O [Compound 1, 3-(Methylamino)pyrazine-2-carboxamide]
- logk [1]: −0.4028
- PET inhibition (result in words) [2]: did not inhibit PET

Compound: 3-(Pyrrolidin-1-ylamino)pyrazine-2-carboxamide [Compound 14]
- logk [1]: −0.4889
- PET inhibition (result in words) [2]: did not inhibit PET

Compound: 3-(Piperidin-1-ylamino)pyrazine-2-carboxamide [Compound 15]
- logk [1]: −0.2333
- PET inhibition (result in words) [2]: did not inhibit PET

Compound: NC(=O)c1nccnc1NC1CCCCCC1 [Compound 13, 3-(Cycloheptylamino)pyrazine-2-carboxamide]
- logk [1]: 0.6575
- IC80 [4]: < 250 µM
- IC80 ([5]; 24 h): 7.81 µM
- IC80 ([5]; 48 h): 7.81 µM
- IC80 ([6]; 24 h): 15.6 µM
- IC80 ([6]; 48 h): 31.2 µM
- IC80 (Candida glabrata 20/I; 24 h): 7.81 µM
- IC80 (Candida glabrata 20/I; 48 h): 15.6 µM
- IC80 (Candida krusei E28; 24 h): 7.81 µM
- IC80 (Candida krusei E28; 48 h): 31.2 µM
- IC80 (Candida tropicalis 156; 24 h): 62.5 µM
- IC80 (Candida tropicalis 156; 48 h): 500 µM
- IC80 ([7]; 24 h): 62.5 µM
- IC80 ([7]; 48 h): 250 µM
- IC80 ([8]; 72 h): 15.6 µM
- IC80 ([8]; 120 h): 15.6 µM
- IC80 (Trichosporon asahii 1188; 24 h): 31.2 µM
- IC80 (Trichosporon asahii 1188; 48 h): 125 µM
- IC50 [2]: 19.3 µM
- IC80 ([3]; nearly a whole spectrum of fungi tested, after 24 h of incubation, read-out: 80% inhibition of control (IC80), range over fungi): 7.81 to 31.2 µM

Compound: CCCCCCCCNc1nccnc1C(N)=O [Compound 9, 3-(Octylamino)pyrazine-2-carboxamide]
- logk [1]: 1.1533
- IC50 [2]: 14.3 µM

Compound: CCC(C)(C)Nc1nccnc1C(N)=O [Compound 6, 3-(tert-Pentylamino)pyrazine-2-carboxamide]
- logk [1]: 0.5468
- IC50 [2]: 480 µM

Compound: CN(C)C(=O)Nc1ccc(Cl)c(Cl)c1 [DCMU, 3-(3,4-dichlorophenyl)-1,1-dimethylurea, reference compound]
- IC50 [2]: 1.9 µM

Compound: NC(=O)c1nccnc1N1CCOCC1 [Compound 16, 3-(Morpholin-4-yl)pyrazine-2-carboxamide]
- logk [1]: −0.6238
- PET inhibition (result in words) [2]: did not inhibit PET

Compound: C[C@@H]1[C@H](O)[C@@H](C)/C=C/C=C/C=C/C=C/C=C/C=C/C=C/[C@H](O[C@@H]2O[C@H](C)[C@@H](O)[C@H](N)[C@@H]2O)C[C@@H]2O[C@](O)(C[C@@H](O)C[C@@H](O)[C@H](O)CC[C@@H](O)C[C@@H](O)CC(=O)O[C@H]1C)C[C@H](O)[C@H]2C(=O)O [AMP, amphotericin B]
- IC80 ([5]; 24 h): 1.95 µM
- IC80 ([5]; 48 h): 1.95 µM
- IC80 ([6]; 24 h): 0.12 µM
- IC80 ([6]; 48 h): 0.49 µM
- IC80 (Candida glabrata 20/I; 24 h): 0.98 µM
- IC80 (Candida glabrata 20/I; 48 h): 1.95 µM
- IC80 (Candida krusei E28; 24 h): 1.95 µM
- IC80 (Candida krusei E28; 48 h): 1.95 µM
- IC80 (Candida tropicalis 156; 24 h): 1.95 µM
- IC80 (Candida tropicalis 156; 48 h): 1.95 µM
- IC80 ([7]; 24 h): 7.81 µM
- IC80 ([7]; 48 h): 7.81 µM
- IC80 ([8]; 72 h): 1.95 µM
- IC80 ([8]; 120 h): 1.95 µM
- IC80 (Trichosporon asahii 1188; 24 h): 0.49 µM
- IC80 (Trichosporon asahii 1188; 48 h): 0.98 µM

Compound: NC(=O)c1cnccn1 [pyrazinamide]
- MIC [9]: 12.5 µg/mL (≈ 102 µM)
